Experimental data published in patent publication US20190030036A1, “PHOSPHODIESTERASE INHIBITOR TREATMENT” (Cyrano Therapeutics, Inc., priority 2013, published 2019).
Marks after values point to notes of the source that are not given here.

System: patients with hyposmia
Assay: Smell function (DT, RT, ME, H) by forced-choice, three-stimuli, stepwise-staircase technique with four odors; open trial of oral theophylline
Assay type: in vivo, human
Description: Patients initially reported their sensory dysfunction as either loss of taste (e.g., flavor) and/or smell function. This subjective response was documented by objective psychophysical measurements of olfactory function administered to each patient by use of a forced-choice, three-stimuli, stepwise-staircase technique in a fixed, controlled design (1, 53). Efficacy of this technique and results of testing were previously documented in a double-blind clinical trial (53). Four odors were used; they were pyridine (dead-fish odor), nitrobenzene (bitter-almond odor), thiophene (petroleum-like odor) and amyl acetate (banana-oil odor). Detection thresholds (DT), recognition thresholds (RT) and magnitude estimation (ME) values for each odor were determined as previously described (1, 53). Thresholds were converted into bottle units (BU) as previously described (53) and results reported as M±SEM of correct responses for each odor in each treatment group; ME was reported in % and results calculated to obtain M±SEM for each treatment group for all correct responses using data for the four highest odor concentrations presented (from 10^−2M—an absolute odor concentration).
In addition, each patient graded the hedonic (H) value of each odor presented for these same odor concentrations (from 10^−2M—an absolute odor concentration using a −100−0−+100 scale). […] Results were obtained by calculating the arithmetical sum of each correct recognition response for each odor with respect to its pleasantness, unpleasantness or neutrality. Arithmetic M±SEM were obtained for each treatment group for each odor presented.
After determination of hyposmia, patients were treated in an open label, fixed design, controlled open trial. Patients were given an oral extended release theophylline in divided daily doses taken in the middle of breakfast and lunch. All patients were initially given 200 mg of theophylline; changes in this dose were made based upon subjective responses to therapy. If at a subsequent return visit, patients reported ≥5% subjective improvement in overall smell function, they continued on this same dose of theophylline and were reevaluated after four to six months of continued treatment. Results from any subsequent return from these improved patients were not included in any subsequent data report. All subsequent comparisons between treated and untreated patients were made only between those patients continuing in the study compared to their own measurements obtained in the untreated state. If patients reported <5% subjective improvement, their theophylline dose was increased by 200 mg daily and they were scheduled for retesting at the study site after two to four months at this new dosage. For patients that reported <5% improvement, this sequence continued until patients reached 800 mg of theophylline, at which time the study was considered completed.
Patients returned for reevaluation after two to four months of treatment. Measurements of blood serum theophylline were measured by a fluorescence polarization assay (Abbott, Chicago, Ill.). At this time, subjective changes in smell function were measured independently (compared to patient's memory of previous normal smell function monitored by use of the patients' daily measurements) using the scale from −100−0-+100 previously described. After independently recording their subjective responses, smell function was measured for all four odors with DT, RT, ME and H determined without recourse to prior measurements.
Since data for all measurements from each patient group (local or distant) on each dose level were combined mean and SEM for each measurement (DT, RT, ME, H) of smell function for each treatment group were calculated on this basis. Differences in measurements between before treatment and each treatment level were calculated and significance of differences estimated using Student t tests (values p<0.05 considered significant). […]

[1] = amyl acetate, oral theophylline 200 mg
[2] = amyl acetate, oral theophylline 200 mg daily, all patients (199)
[3] = amyl acetate, oral theophylline 200 mg, Type I hyposmia (57)
[4] = amyl acetate, oral theophylline 200 mg, Type II hyposmia (138)
[5] = amyl acetate, oral theophylline 200 mg, Type III hyposmia (4)
[6] = amyl acetate, oral theophylline 400 mg
[7] = amyl acetate, oral theophylline 400 mg daily, all patients (120)
[8] = amyl acetate, oral theophylline 400 mg, Type I hyposmia (33)
[9] = amyl acetate, oral theophylline 400 mg, Type II hyposmia (85)
[10] = amyl acetate, oral theophylline 400 mg, Type III hyposmia (2)
[11] = amyl acetate, oral theophylline 600 mg daily, all patients (160)
[12] = amyl acetate, oral theophylline 600 mg, Type I hyposmia (51)
[13] = amyl acetate, oral theophylline 600 mg, Type II hyposmia (105)
[14] = amyl acetate, oral theophylline 600 mg, Type III hyposmia (4)
[15] = amyl acetate, oral theophylline 800 mg daily, all patients (28)
[16] = amyl acetate, oral theophylline 800 mg, Type I hyposmia (12)
[17] = amyl acetate, oral theophylline 800 mg, Type II hyposmia (16)
[18] = nitrobenzene, oral theophylline 200 mg

SMILES: Cn1c(=O)c2[nH]cnc2n(C)c1=O [theophylline]
- increase of H values (more pleasant) [1]: 2%
- increase of ME values [1]: 5%
- DT, detection threshold [2]: 7.9 ± 0.2^c BU
- H, hedonic estimation [2]: 3 ± 1%
- ME, magnitude estimation [2]: 15 ± 2^d %
- RT, recognition threshold [2]: 9.9 ± 0.2^c BU
- DT, detection threshold [3]: 10.5 ± 0.3^d BU
- H, hedonic value [3]: 4 ± 2^a %
- ME, magnitude estimation [3]: 6 ± 2^a %
- RT, recognition threshold [3]: 11.3 ± 0.2^ BU
- DT, detection threshold [4]: 7.0 ± 0.3^ BU
- H, hedonic value [4]: 3 ± 2^ %
- ME, magnitude estimation [4]: 19 ± 2^ %
- RT, recognition threshold [4]: 9.3 ± 0.2^ BU
- DT, detection threshold [5]: 2.8 ± 0.5 BU
- H, hedonic value [5]: 14 ± 13%
- ME, magnitude estimation [5]: 32 ± 10%
- RT, recognition threshold [5]: 5.2 ± 1.6 BU
- ME increases [6]: 8%
- change of H values (became more pleasant) [6]: 1%
- DT, detection threshold [7]: 7.1 ± 0.3^b BU
- H, hedonic estimation [7]: 3 ± 2^ %
- ME, magnitude estimation [7]: 18 ± 2^c %
- RT, recognition threshold [7]: 9.3 ± 0.3^b BU
- DT, detection threshold [8]: 10.1 ± 0.5^a BU
- H, hedonic value [8]: 5 ± 3^a %
- ME, magnitude estimation [8]: 7 ± 3^a %
- RT, recognition threshold [8]: 11.2 ± 0.3^ BU
- DT, detection threshold [9]: 6.1 ± 0.4^a BU
- H, hedonic value [9]: 0.3 ± 2.8^ %
- ME, magnitude estimation [9]: 21 ± 3^ %
- RT, recognition threshold [9]: 8.8 ± 0.4^a BU
- DT, detection threshold [10]: 2 BU
- H, hedonic value [10]: 75%
- ME, magnitude estimation [10]: 75%
- RT, recognition threshold [10]: 3 BU
- DT, detection threshold [11]: 7.8 ± 0.3^a BU
- H, hedonic estimation [11]: 4 ± 1^ %
- ME, magnitude estimation [11]: 15 ± 2^c %
- RT, recognition threshold [11]: 9.6 ± 0.2^a BU
- DT, detection threshold [12]: 10.1 ± 0.3^a BU
- H, hedonic value [12]: −0.4 ± 1^ %
- ME, magnitude estimation [12]: 5 ± 2^a %
- RT, recognition threshold [12]: 11.1 ± 0.2^ BU
- DT, detection threshold [13]: 6.8 ± 0.3^a BU
- H, hedonic value [13]: 7 ± 2^ %
- ME, magnitude estimation [13]: 19 ± 2^ %
- RT, recognition threshold [13]: 8.9 ± 0.3^a BU
- DT, detection threshold [14]: 2.5 ± 1.0 BU
- H, hedonic value [14]: 28 ± 19%
- ME, magnitude estimation [14]: 31 ± 17%
- RT, recognition threshold [14]: 4.8 ± 1.7 BU
- DT, detection threshold [15]: 7.2 ± 0.8^ BU
- H, hedonic estimation [15]: 8 ± 5^ %
- ME, magnitude estimation [15]: 24 ± 2^a %
- RT, recognition threshold [15]: 9.0 ± 0.5^b BU
- DT, detection threshold [16]: 10.6 ± 0.5^ BU
- H, hedonic value [16]: −1 ± 4^ %
- ME, magnitude estimation [16]: 5 ± 3^a %
- RT, recognition threshold [16]: 11.6 ± 0.4^ BU
- DT, detection threshold [17]: 4.6 ± 0.7^a BU
- H, hedonic value [17]: 13 ± 9^ %
- ME, magnitude estimation [17]: 38 ± 6^c %
- RT, recognition threshold [17]: 7.1 ± 0.6^a BU
- increase of H values (more pleasant) [18]: 2%
- increase of ME values [18]: 5%
